Source: patent publication US8815934B2, “2-Phenyl-1-[4-(2-Aminoethoxy)-Benzyl]-Indole and estrogen formulations” (Wyeth LLC, priority 1998, dated 2014)
pIC50: −log10 of the molar value.

Columns and labels:
[1] = target: T1, estrogen receptor (Homo sapiens (Human), UniProt P03372); assay: In vitro estrogen receptor binding assay; settings: competition with [3H]17β-estradiol, cytosol of CHO cells overexpressing the estrogen receptor; for pIC50: read-out: Receptor Binding IC50's
Procedure: CHO cells overexpressing the estrogen receptor were grown in 150 mm^2 dishes in DMEM+10% dextran coated charcoal, stripped fetal bovine serum. The plates were washed twice with PBS and once with 10 mM Tris-HCl, pH 7.4, 1 mM EDTA. Cells were harvested by scraping the surface and then the cell suspension was placed on ice. Cells were disrupted with a hand-held motorized tissue grinder using two, 10-second bursts. […] The cytosol was then frozen and stored at −80° C. Protein concentration of the cytosol was estimated using the BCA assay with reference standard protein.
100 uG/100 uL of the receptor preparation was aliquoted per well. […] The plate was incubated at room temperature for 2.5 h. […] 200 uL of the supernatant solution was then removed for scintillation counting. Samples were counted to 2% or 10 minutes, whichever occurs first.
Counts per minute (CPM) of radioactivity were automatically converted to disintegrated per minute (DPM) by the Beckman LS 7500 Scintillation Counter using a set of quenched standards to generate a H No. for each sample.
For the generation of IC50 curves, % binding is plotted vs compound. […] For a description of these methods, see Hulme, E. C., ed. […] Receptor-Ligand Interactions: A Practical Approach. IRL Press, New York. (see especially chapter 8).

[2] = target: T1, estrogen receptor; assay: 2×VIT ERE infection luciferase assay; type: cell-based; settings: for Infection Luciferase Activity, 1 uM + 17β estradiol: 1 uM compound + 1 nM 17β-estradiol (estrogen antagonism); for Infection Luciferase Activity, 1 uM: 1 uM compound alone, percentage of activity as compared to 17β-estradiol
Procedure: Chinese Hamster Ovary cells (CHO) which had been stably transfected with the human estrogen receptor were maintained in DMEM+10% fetal bovine serum (FBS). 48 h prior to treatment the growth medium was replaced with DMEM lacking phenol red+10% dextran coated charcoal stripped FBS (treatment medium). Cells were plated at a density of 5000 cells/well in 96-well plates containing 200 μL of medium/well.
Reporter DNA (Promega plasmid pGL2 containing two tandem copies of the vitellogenin ERE in front of the minimal thymidine kinase promoter driving the luciferase gene) was combined with the B-galactosidase expression plasmid pCH110 (Pharmacia) and carrier DNA (pTZ18U) in the following ratio:
20 uL of this mixture was added to each well of cells and remained on the cells for 16 h. […] Each treatment condition was performed on 8 wells (n=8) which were incubated for 24 h prior to the luciferase assay.
After removing the PBS, 25 uL of Promega lysis buffer was added to each well and allowed to stand at room temperature for 15 min, followed by 15 min at −80° C. and 15 min at 37° C. 20 uL of lysate was transferred to an opaque 96 well plate for luciferase activity evaluation and the remaining lysate (5 uL) was used for the B-galactosidase activity evaluation (normalize transfection). The luciferan substrate (Promega) was added in 100 uL aliquots to each well automatically by the luminometer and the light produced (relative light units) was read 10 seconds after addition.
To the remaining 5 uL of lysate 45 uL of PBS was added. Then 50 uL of Promega B-galactosidase 2× assay buffer was added, mixed well and incubated at 37° C. for 1 hour. A plate containing a standard curve (0.1 to 1.5 milliunits in triplicate) was set up for each experimental run. The plates were analyzed on a Molecular Devices spectrophotometric plate reader at 410 nm. The optical densities for the unknown were converted to milliunits of activity by mathematical extrapolation from the standard curve.
The luciferase data was generated as relative light units (RLUs) accumulated during a 10 second measurement and automatically transferred to a JMP (SAS Inc) file where background RLUs were subtracted. The B-galactosidase values were automatically imported into the file and these values were divided into the RLUs to normalize the data. The mean and standard deviations were determined from a n=8 for each treatment. […] These techniques are described by Tzukerman, M. T., Esty, A., Santiso-Mere, D., Danielian, P., Parker, M. G., Stein, R. B., Pike, J. W. and McDonnel, D. P. (1994). Human estrogen receptor transactivational capacity was determined by both cellular and promoter context and mediated by two functionally distinct intramolecular regions (see Molecular Endocrinology, 8:21-30).

[3] = test system: Immature Sprague-Dawley rats; assay: Rat uterotrophic/antiuterotrophic bioassay; type: in vivo; settings: immature female rats, daily ip; for Uterine wt mg 100 uG cmpd + 1uG 17β-estradiol: 100 uG compound + 1 uG 17β-estradiol; for Uterine wt mg 100 uG cmpd: 100 uG compound, wet weight
Procedure: The estrogenic and antiestrogenic properties of the compounds were determined in an immature rat uterotrophic assay (4 day) that (as described previously by L. J. Black and R. L. Goode, Life Sciences, 26, 1453 (1980)). Immature Sprague-Dawley rats (female, 18 days old) were tested in groups of six. […] On day 4 the animals were sacrificed by CO2 asphyxiation and their uteri were removed and stripped of excess lipid, any fluid removed and the wet weight determined. A small section of one horn was submitted for histology and the remainder used to isolate total RNA in order to evaluate complement component 3 gene expression.

[4] = test system: Ishikawa cells; assay: Ishikawa cell alkaline phosphatase assay; type: cell-based, human; settings: for % Activation (Ishikawa alkaline phosphatase) with 1 nM 17β-estradiol: compound + 1 nM 17β-estradiol (antiestrogen test); for % Activation (Ishikawa alkaline phosphatase): compound alone, percent of response related to 1 nM 17β-estradiol; for ED50 of estrogenic activity by the alkaline phosphatase method: Ishikawa cells, 48 h treatment, reference standards
Procedure: Cells were treated for 48 h prior to assay. […] Sample population for at each dose was n=8. […] Plates are placed at -80° C. for a minimum of […]. Plates are thawed at 37° C. followed by the addition of 150 μL of 0.1 M Tris-HCl, pH 9.8, containing 4 mM para-nitrophenylphosphate (pNPP) to each well (final concentration, 3 mM pNPP). Absorbance and slope calculations were made using the […] Application program (Bio-Tek Instruments, Inc., Winooski, Vt.). […] The four listed in the following were used as reference standards: A description of these methods is described by Holinka, […]., Kuramoto, H. and Gurpide, E. (1986) Effects of steroid hormones and antisteroids on alkaline phosphatase activity in human endometrial cancer cells (Ishikawa Line). Cancer Research, 46:2771-2774, and by […]. and […] simple and sensitive microtiter plate estrogen bioassay based on stimulation alkaline phosphatase in Ishikawa cells; […] Endocrinology, 6:2757-2762.

T1 sequence (P03372 whole entry): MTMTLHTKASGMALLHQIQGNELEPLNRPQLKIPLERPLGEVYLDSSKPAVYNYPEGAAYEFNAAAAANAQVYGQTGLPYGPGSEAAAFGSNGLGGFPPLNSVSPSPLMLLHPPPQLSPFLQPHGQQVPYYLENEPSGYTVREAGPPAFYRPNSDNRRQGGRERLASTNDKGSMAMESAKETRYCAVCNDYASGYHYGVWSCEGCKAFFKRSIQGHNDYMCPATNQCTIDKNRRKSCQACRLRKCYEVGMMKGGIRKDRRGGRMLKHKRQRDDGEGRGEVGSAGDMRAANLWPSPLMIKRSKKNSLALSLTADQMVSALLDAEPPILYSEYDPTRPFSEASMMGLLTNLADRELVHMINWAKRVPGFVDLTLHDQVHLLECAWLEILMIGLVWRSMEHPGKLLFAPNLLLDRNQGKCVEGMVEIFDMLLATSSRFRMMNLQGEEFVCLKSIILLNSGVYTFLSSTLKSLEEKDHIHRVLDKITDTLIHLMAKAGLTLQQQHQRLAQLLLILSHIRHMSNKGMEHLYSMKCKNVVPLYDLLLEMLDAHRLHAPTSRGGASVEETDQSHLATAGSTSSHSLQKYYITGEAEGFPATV

## Cc1c(-c2ccc(O)cc2)n(Cc2ccc(OCC[N+](C)(C)C)cc2)c2ccc(O)cc12.[I-] [No. 106, 2-(4-Hydroxy-phenyl)-3-methyl-1-[4-(2-dimethyl-1-yl-ethoxy)-benzyl]-1H-indol-5-ol methiodide]
[1]
  pIC50: 7.00
[2]
  Infection Luciferase Activity, 1 uM + 17β estradiol: 81%
  Infection Luciferase Activity, 1 uM: 10%

## Cc1c(-c2ccc(OC(C)C)cc2)n(Cc2ccc(OCCN3CCCCC3)cc2)c2ccc(O)cc12 [No. 120, 2-(4-Isopropoxy-phenyl)-3-methyl-1-[4-(2-1-yl-ethoxy)-benzyl]-1H-indol-5-ol]
[1]
  pIC50: 7.00
[2]
  Infection Luciferase Activity, 1 uM + 17β estradiol: 1%
  Infection Luciferase Activity, 1 uM: −1%

## N#Cc1c(-c2ccc(O)cc2)n(Cc2ccc(OCCN3CCCCC3)cc2)c2ccc(O)cc12 [No. 138, 5-Hydroxy-2-(4-Hydroxy-phenyl)-1-[4-(2-piperidin-1-yl-ethoxy)-benzyl]-1H-indole-3-carbonitrile]
[2]
  Infection Luciferase Activity, 1 uM + 17β estradiol: −1%
  Infection Luciferase Activity, 1 uM: −2%
[3]
  Uterine wt mg 100 uG cmpd + 1uG 17β-estradiol: 37.9 mg
  Uterine wt mg 100 uG cmpd: 28.4 mg

## Cc1c(-c2ccc(O)cc2)n(Cc2ccc(OCCN3CCCCCC3)cc2)c2ccc(O)cc12 [No. 98, 1-[4-(2-Azepan-1-yl-ethoxy)-benzyl]-2-(4-hydroxy-phenyl)-3-methyl-1H-indol-5-ol]
[4]
  % Activation (Ishikawa alkaline phosphatase) with 1 nM 17β-estradiol: 1% activity (1% with 1 nM 17β-estradiol)
  % Activation (Ishikawa alkaline phosphatase): 1% activity (1% with 1 nM 17β-estradiol)
[3]
  Uterine wt mg 100 uG cmpd + 1uG 17β-estradiol: 27.9 mg
  Uterine wt mg 100 uG cmpd: 29.4 mg

## Cc1c(-c2ccccc2)n(Cc2ccc(OCCN3CCCCC3)cc2)c2ccccc12 [No. 85, 4-{3-Methyl-1-[4-(2-piperidin-1-yl-ethoxy)-benzyl]-1H-indole}]
[1]
  pIC50: 6.35
[2]
  Infection Luciferase Activity, 1 uM + 17β estradiol: 43%
  Infection Luciferase Activity, 1 uM: −2%
[3]
  Uterine wt mg 100 uG cmpd + 1uG 17β-estradiol: 92.4 mg
  Uterine wt mg 100 uG cmpd: 41.1 mg

## C[C@]12CC[C@@H]3c4ccc(O)cc4CC[C@H]3[C@@H]1CCC2=O [estrone]
[4]
  ED50 of estrogenic activity by the alkaline phosphatase method: 0.36 nM

## C[C@]12CC[C@@H]3c4ccc(O)cc4CC[C@H]3[C@@H]1CC[C@H]2O [17α-estradiol]
[4]
  ED50 of estrogenic activity by the alkaline phosphatase method: 1.42 nM

## Cc1c(-c2ccc(OC(=O)C(C)(C)C)cc2)n(Cc2ccc(OCCN3CCCCC3)cc2)c2ccc(OC(=O)C(C)(C)C)cc12 [No. 162, Di-pivalate ester of 2-(4-Hydroxy-phenyl)-3-methyl-1-[4-(2-piperidin-1-yl-ethoxy)-benzyl]-1H-indol-5-ol]
[1]
  Receptor Binding IC50's: Does not Bind
[2]
  Infection Luciferase Activity, 1 uM + 17β estradiol: −13%
  Infection Luciferase Activity, 1 uM: −14%

## O=C(c1ccc(OCCN2CCCCC2)cc1)c1c(-c2ccc(O)cc2)sc2cc(O)ccc12 [raloxifene]
[4]
  % Activation (Ishikawa alkaline phosphatase) with 1 nM 17β-estradiol: 5% activity (5% with 1 nM 17β-estradiol)
  % Activation (Ishikawa alkaline phosphatase): 5% activity (5% with 1 nM 17β-estradiol)

## Cc1c(-c2ccc3c(c2)OCO3)n(Cc2ccc(OCCN3CCCCC3)cc2)c2ccc(O)cc12 [No. 119, 2-Benzo[1.3]dioxol-5-yl-3-methyl-1-[4-(2-piperidin-1-yl-ethoxy)-benzyl]-1H-indol-5-ol]
[1]
  pIC50: 7.15
[2]
  Infection Luciferase Activity, 1 uM + 17β estradiol: −1%
  Infection Luciferase Activity, 1 uM: −1%

## CC/C(=C(\c1ccccc1)c1ccc(OCCN(C)C)cc1)c1ccccc1 [tamoxifen]
[3]
  Uterine wt mg 100 uG cmpd: 71.4 mg

## C[C@]12CC[C@@H]3c4ccc(O)cc4CC[C@H]3[C@@H]1C[C@@H](O)[C@@H]2O [estriol]
[4]
  ED50 of estrogenic activity by the alkaline phosphatase method: 0.13 nM

## Cc1c(-c2ccc(C(F)(F)F)cc2)n(Cc2ccc(OCCN3CCCCC3)cc2)c2ccc(O)cc12 [No. 123, 3-Methyl-1-[4-(2-piperidin-1-yl-ethoxy)-benzyl]-2-(4-trifluoromethyl-phenyl)-1H-indol-5-ol]
[2]
  Infection Luciferase Activity, 1 uM + 17β estradiol: 1%
  Infection Luciferase Activity, 1 uM: −1%
[3]
  Uterine wt mg 100 uG cmpd + 1uG 17β-estradiol: 61.4 mg
  Uterine wt mg 100 uG cmpd: 39.2 mg

## COc1cc(Cn2c(-c3ccc(O)cc3)c(C)c3cc(O)ccc32)ccc1OCCN1CCCCCC1 [No. 168, 2-(4-Hydroxy-phenyl)-1-[3-methoxy-4-(2-azepan-1-yl-ethoxy)-benzyl]-3-methyl-1H-indol-5-ol]
[3]
  Uterine wt mg 100 uG cmpd + 1uG 17β-estradiol: 81.7 mg
  Uterine wt mg 100 uG cmpd: 43.2 mg

## Cc1c(-c2ccc(OC3CCCC3)cc2)n(Cc2ccc(OCCN3CCCCC3)cc2)c2ccc(O)cc12 [No. 122, 2-(4-Cyclopenyloxy-phenyl)-3-methyl-1-[4-(2-piperidin-1-yl-ethoxy)-benzyl]-1H-indol-5-ol]
[1]
  pIC50: 7.10
[2]
  Infection Luciferase Activity, 1 uM + 17β estradiol: 5%
  Infection Luciferase Activity, 1 uM: 1%
[3]
  Uterine wt mg 100 uG cmpd + 1uG 17β-estradiol: 38.7 mg
  Uterine wt mg 100 uG cmpd: 46.7 mg
